Publication PMC3867298 (Clinical cancer research : an official journal of the …, 2010)

Key:
[1] = Plasma pharmacokinetics in patients; type: in vivo, human; details: for AUC(0-inf) / Cmax / Tmax / half-life / Vd/F: human, plasma, oral; for Vd/F: 160 mg/m2, Vd/F
[2] = system: plasma soluble VEGFR2 (sVEGFR2); experiment: Plasma soluble VEGFR2 ELISA; type: in vivo, human; details: cycle 1, day 28 (95% CI 5,086, 6,113); baseline cycle 1 day 1 8,419 pg/mL; P < 0.001
phosphohistone H3 (pHH3) = experiment: Histone H3 phosphorylation in keratinocytes; type: in vivo, human; details: 9 paired skin biopsies at MTD, cycle 1 day 28
advanced solid tumors = experiment: Antitumor activity by modified RECIST and CA125; type: in vivo, human
[3] = system: patients with advanced solid tumors
[4] = day 1, 160 mg/m^2, n=8, mean ± SD
[5] = day 28, 160 mg/m^2, n=5, mean ± SD

With `Cc1cc(Nc2cc(N3CCN(C)CC3)nc(/C=C/c3ccccc3)n2)n[nH]1` [ENMD-2076] the CL/F ([1]; day 1, 60 mg/m^2, n=6, mean ± SD) was 37.9 ± 19.3 L/h, the CL/F ([1]; day 1, 80 mg/m^2, n=4, mean ± SD) was 45.9 ± 13.0 L/h and the CL/F ([1]; day 1, 120 mg/m^2, n=3, mean ± SD) was 64.3 ± 16.9 L/h. For the same molecule, the CL/F [1, 4] was 52.9 ± 18.4 L/h, the CL/F ([1]; day 1, 200 mg/m^2, n=5, mean ± SD) was 41.5 ± 13.3 L/h and the CL/F ([1]; day 1, 350 mg/m^2, n=2, mean ± SD) was 55.2 ± 12.9 L/h. For the same molecule, the CL/F ([1]; day 28, 60 mg/m^2, n=6, mean ± SD) was 10.4 ± 7.9 L/h, the CL/F ([1]; day 28, 80 mg/m^2, n=3, mean ± SD) was 10.8 ± 3.3 L/h and the CL/F ([1]; day 28, 120 mg/m^2, n=3, mean ± SD) was 13.0 ± 1.4 L/h. It also gave a CL/F [1, 5] of 9.1 ± 2.9 L/h, a CL/F ([1]; day 28, 200 mg/m^2, n=4, mean ± SD) of 14.0 ± 4.7 L/h and an AUC(0-inf) ([1]; 60 mg/m2, AUC(0-inf), day 1, 60 mg/m^2, n=6, mean ± SD) of 3160 ± 1340 ng·h/mL. It also gave an AUC(0-inf) ([1]; 60 mg/m2, AUC(0-inf), day 28, 60 mg/m^2, n=6, mean ± SD) of 15300 ± 8910 ng·h/mL, a Cmax ([1]; 60 mg/m2, Cmax, day 1, 60 mg/m^2, n=6, mean ± SD) of 64 ± 23 ng/mL and a Cmax ([1]; 60 mg/m2, Cmax, day 28, 60 mg/m^2, n=6, mean ± SD) of 218 ± 95 ng/mL. The Tmax ([1]; 60 mg/m2, Tmax, day 1, 60 mg/m^2, n=6, mean ± SD) was 7.8 ± 7.8 h, the Tmax ([1]; 60 mg/m2, Tmax, day 28, 60 mg/m^2, n=6, mean ± SD) was 4.7 ± 3 h and the half-life ([1]; 60 mg/m2, t1/2, day 1, 60 mg/m^2, n=6, mean ± SD) was 36.4 ± 19.3 h. For the same molecule, the half-life ([1]; 60 mg/m2, t1/2, day 28, 60 mg/m^2, n=6, mean ± SD) was 53.1 ± 20.4 h, the AUC(0-inf) ([1]; 80 mg/m2, AUC(0-inf), day 1, 80 mg/m^2, n=4, mean ± SD) was 3850 ± 1600 ng·h/mL and the AUC(0-inf) ([1]; 80 mg/m2, AUC(0-inf), day 28, 80 mg/m^2, n=3, mean ± SD) was 14700 ± 3780 ng·h/mL. For the same molecule, the Cmax ([1]; 80 mg/m2, Cmax, day 1, 80 mg/m^2, n=4, mean ± SD) was 101 ± 59 ng/mL, the Cmax ([1]; 80 mg/m2, Cmax, day 28, 80 mg/m^2, n=3, mean ± SD) was 233 ± 76 ng/mL and the Tmax ([1]; 80 mg/m2, Tmax, day 1, 80 mg/m^2, n=4, mean ± SD) was 4 ± 1.6 h. For the same molecule, the Tmax ([1]; 80 mg/m2, Tmax, day 28, 80 mg/m^2, n=3, mean ± SD) was 3.4 ± 1.2 h, the half-life ([1]; 80 mg/m2, t1/2, day 1, 80 mg/m^2, n=4, mean ± SD) was 31.8 ± 7.6 h and the half-life ([1]; 80 mg/m2, t1/2, day 28, 80 mg/m^2, n=3, mean ± SD) was 51 ± 18.7 h. For the same molecule, the AUC(0-inf) ([1]; 120 mg/m2, AUC(0-inf), day 1, 120 mg/m^2, n=3, mean ± SD) was 3590 ± 1260 ng·h/mL, the AUC(0-inf) ([1]; 120 mg/m2, AUC(0-inf), day 28, 120 mg/m^2, n=3, mean ± SD) was 16700 ± 1120 ng·h/mL and the Cmax ([1]; 120 mg/m2, Cmax, day 1, 120 mg/m^2, n=3, mean ± SD) was 93 ± 14 ng/mL. The Cmax ([1]; 120 mg/m2, Cmax, day 28, 120 mg/m^2, n=3, mean ± SD) was 314 ± 73 ng/mL, the Tmax ([1]; 120 mg/m2, Tmax, day 1, 120 mg/m^2, n=3, mean ± SD) was 6 ± 3.5 h and the Tmax ([1]; 120 mg/m2, Tmax, day 28, 120 mg/m^2, n=3, mean ± SD) was 2.7 ± 3.2 h. It also gave a half-life ([1]; 120 mg/m2, t1/2, day 1, 120 mg/m^2, n=3, mean ± SD) of 27.3 ± 5.8 h, a half-life ([1]; 120 mg/m2, t1/2, day 28, 120 mg/m^2, n=3, mean ± SD) of 44.9 ± 8.6 h and an AUC(0-inf) ([1]; 160 mg/m2, AUC(0-inf), day 1, 160 mg/m^2, n=8, mean ± SD) of 5940 ± 2410 ng·h/mL. The AUC(0-inf) ([1]; 160 mg/m2, AUC(0-inf), day 28, 160 mg/m^2, n=5, mean ± SD) was 34600 ± 16500 ng·h/mL, the Cmax ([1]; 160 mg/m2, Cmax, day 1, 160 mg/m^2, n=8, mean ± SD) was 157 ± 52 ng/mL and the Cmax ([1]; 160 mg/m2, Cmax, day 28, 160 mg/m^2, n=5, mean ± SD) was 558 ± 222 ng/mL. The Tmax ([1]; 160 mg/m2, Tmax, day 1, 160 mg/m^2, n=8, mean ± SD) was 3.5 ± 1.4 h, the Tmax ([1]; 160 mg/m2, Tmax, day 28, 160 mg/m^2, n=5, mean ± SD) was 4.4 ± 2.1 h and the Vd/F [1, 4] was 2020 ± 388 L. For the same molecule, the Vd/F [1, 5] was 600 ± 229 L, the half-life ([1]; 160 mg/m2, t1/2, day 1, 160 mg/m^2, n=8, mean ± SD) was 28.6 ± 8.4 h and the half-life ([1]; 160 mg/m2, t1/2, day 28, 160 mg/m^2, n=5, mean ± SD) was 46.1 ± 9.5 h. The AUC(0-inf) ([1]; 200 mg/m2, AUC(0-inf), day 1, 200 mg/m^2, n=5, mean ± SD) was 10600 ± 4900 ng·h/mL, the AUC(0-inf) ([1]; 200 mg/m2, AUC(0-inf), day 28, 200 mg/m^2, n=4, mean ± SD) was 34500 ± 18300 ng·h/mL and the Cmax ([1]; 200 mg/m2, Cmax, day 1, 200 mg/m^2, n=5, mean ± SD) was 229 ± 65 ng/mL. For the same molecule, the Cmax ([1]; 200 mg/m2, Cmax, day 28, 200 mg/m^2, n=4, mean ± SD) was 557 ± 191 ng/mL, the Tmax ([1]; 200 mg/m2, Tmax, day 1, 200 mg/m^2, n=5, mean ± SD) was 4 ± 2.4 h and the Tmax ([1]; 200 mg/m2, Tmax, day 28, 200 mg/m^2, n=4, mean ± SD) was 4.5 ± 2.5 h. For the same molecule, the half-life ([1]; 200 mg/m2, t1/2, day 1, 200 mg/m^2, n=5, mean ± SD) was 38.3 ± 10 h, the half-life ([1]; 200 mg/m2, t1/2, day 28, 200 mg/m^2, n=4, mean ± SD) was 47.6 ± 12.7 h and the AUC(0-inf) ([1]; 350 mg/m2, AUC(0-inf), day 1, 350 mg/m^2, n=2, mean ± SD) was 12200 ± 5100 ng·h/mL. For the same molecule, the Cmax ([1]; 350 mg/m2, Cmax, day 1, 350 mg/m^2, n=2, mean ± SD) was 300 ± 18 ng/mL, the Tmax ([1]; 350 mg/m2, Tmax, day 1, 350 mg/m^2, n=2, mean ± SD) was 3 ± 1.4 h and the half-life ([1]; 350 mg/m2, t1/2, day 1, 350 mg/m^2, n=2, mean ± SD) was 31.1 ± 14.4 h. The half-life ([1]; Mean terminal phase elimination half-life (t1/2), range, after a single dose) was 27.3 to 38.3 h, the Tmax ([1]; Tmax, range over all dose levels, day 28) was 2.7 to 4.7 h and the “Mean plasma sVEGFR2” value [2] was 5,600 pg/mL. For the same molecule, the “Paired biopsies in which pHH3-positive cells decreased posttreatment” value (phosphohistone H3 (pHH3)) was 3 samples, the “Paired biopsies in which pHH3-positive cells increased” value (phosphohistone H3 (pHH3)) was 2 samples and the “Paired biopsies in which pHH3-positive cells remained the same” value (phosphohistone H3 (pHH3)) was 4 samples. The “Colorectal cancer patients with SD ≥ 12 weeks” value (advanced solid tumors; 19 colorectal cancer patients, 5 patients) was 26%, the “Ovarian cancer patients with PR or SD ≥ 12 weeks” value (advanced solid tumors; 20 ovarian cancer patients, all dose levels, twelve patients) was 60% and the “Partial responses (PR) as best response” value (advanced solid tumors; 58 evaluable patients, 2 patients, 1 confirmed, both ovarian cancer) was 3%. The “Progressive disease (PD) as best response” value (advanced solid tumors; 58 evaluable patients, 7 patients) was 12%, the “Patients with decreases in tumor measurements from baseline not qualifying as PR” value (advanced solid tumors; twenty patients) was 30% and the “Patients with grade 3 neutropenia requiring dose delay and reduction” value ([3]; 200 mg/m^2, 3 of 7) was 43%. The Patients with neutropenia ([3]; 200 mg/m^2 during dose escalation, 4 of 7) was 57%, the “Rate of grade ≥ 3 neutropenia” value ([3]; 46 patients treated at 160 mg/m^2 (2/46)) was 4% and the “Rate of grade ≥ 3 fatigue” value ([3]; 46 patients treated at 160 mg/m^2 (3/46)) was 7%. For the same molecule, the “Rate of grade ≥ 3 hypertension” value ([3]; 46 patients treated at 160 mg/m^2 (11/46)) was 24%, the “Patients with adverse events meeting DLT criteria” value ([3]; MTD expansion, 12/38, 16 events) was 32% and the “Patients requiring dose reduction” value ([3]; MTD expansion, 14/38) was 37%. For the same molecule, the “Patients with dose delays” value ([3]; MTD expansion, 24/38) was 63%.
